Test results as given in patent publication US7071158B2, “Antioxidant enhancement of therapy for hyperproliferative conditions” (Atherogenics, Inc., priority 1997, dated 2006).

Experiments:
[1] = tested on: HCT 116 CRC tumor xenografts; assay: HCT 116 tumor xenografts in athymic mice; type: in vivo; details: for tumor volume compared to saline-treated controls: single agents, 6 weeks
Procedure: HCT 116 CRC cells were injected subcutaneously between the scapula of nu/nu mice. Once tumors reached approximately 150 mm^3, the animals either received weekly i.p. injections of pyrrolidinedithiocarbamate (70 μM) or vitamin E (3 MM), 5-FU (40 mg/kg) or saline, or both an antioxidant and 5-FU. Tumor volume was calculated weekly.
(§5) Male athymic Balb/c nu/nu mice were obtained from the Harlan Sprague-Dawley Company at 4–6 weeks of age and were quarantined for at least 2 weeks before the study. […] HCT 116 and HCT 15 CRC cell lines were grown in DMEM supplemented with 10% FBS as described above. Cells were harvested through two consecutive trypsinizations, centrifuged at 300 g for 5 minutes, washed twice, and resuspended in sterile phosphate buffered saline. One ×10^6 cells in 0.2 ml were injected subcutaneously between the scapula of 7- to 10-week-old male nude mice.
(§6) Tumor volumes were estimated weekly by measuring the maximal length, width, and height. Once tumors reached a mean size of 120 to 150 mm^3, animals received either weekly i.p. injections of pyrrolidinedithiocarbamate (70 μM) or vitamin E (3 mM), 5-FU (40 mg/kg) or saline, or a combination of pyrrolidinedithiocarbamate or vitamin E and 5-FU or 6 weeks. In cross-over experiments, animals received the above treatments for three weeks (with the exception of vitamin E), and then were crossed-over to either the combination treatment of pyrrolidinedithiocarbamate and 5-FU (saline, pyrrolidinedithiocarbamate or 5-FU alone) or discontinued treatment pyrrolidinedithiocarbamate and 5-FU) for the remaining three weeks of the experiment. […] Tumor volumes were recorded weekly until termination of the study.
Tumor tissues were fixed overnight in 4% (v/v) paraformaldehyde and embedded in paraffin according to standard histological procedures. […] TdT labeling of fragmented DNA (TUNEL) was performed as described. The proliferative index (BrDU) and the apoptotic index (TUNEL) were estimated by the percentage of cells scored under a microscope at 200-fold magnification.

HCT 15 cells [2] = assay: Apoptotic index (TUNEL) with or without induced C/EBPβ overexpression; type: cell-based, human; details: 5-FU 1.5 μM or doxorubicin 0.1 μM, 24 hours
Procedure: Control HCT 15 cells and the sense C/EBPβ cell line were induced with 10 μM muristerone A and exposed to either 5-FU (1.5 μM) or doxorubicin (0.1 μM) for 24 hours. The apoptotic index was calculated as described in FIG. 4C.
Finally, the functional role of C/EBPβ was examined in the apoptotic signaling pathway by generating lines of HCT 15 cells that were stably transfected with the human C/EBPβ cDNA, in both the sense and antisense orientation, under the control of an ecdysone inducible promoter. To avoid the possibility that constitutively expressed C/EBPβ might induce cell death, and ecdysone (muristerone A)-inducible expression system (Invitrogen, Carlsbad, Calif.) was used. Human C/EBPβ cDNA was subcloned into pIND at convenient enzyme cleavage ites. Constructs, containing sense and antisense C/EBPβ sequences were verified by double-stranded DNA sequencing. Before transfection, pIND-C/EBPβ constructs were linearized with Pme I and purified. HCT 15 cells were transfected with 5 μg of pVgRXR (Invitrogen) and 10 μg of pIND-C/EBPβ using CELLFECTIN according to manufacture's instructions. After 24 hours, cells were shifted to medium supplemented with 1 mg/ml Geneticin and […] puromycin (GIBCO BRL) to select for transfectant clones. After 2 weeks, antibiotic-resistant cells were subcloned by limiting dilution. The expression of C/EBPβ protein and the subsequent induction of p21^WAF1/CIP1 was determined following induction with 10 μM muristerone A for 24 hours and Western blot analysis.

HCT 15-derived tumors = assay: HCT 15 tumor xenografts in athymic mice; type: in vivo
Procedure: HCT 15-derived tumors were generated as described above. Animals were then treated with pyrrolidinedithiocarbamate, in the presence or absence of 5-FU, for 3 weeks. At this point, treatments were discontinued in animals receiving the combined treatment of pyrrolidinedithiocarbamate and 5-FU for 2 months. All other treatment groups received both 5-FU and pyrrolidinedithiocarbamate for the remaining 3 weeks.
as §5, §6
Tumor tissues were fixed overnight in 4% (v/v) paraformaldehyde and embedded in paraffin according to standard histological procedures. […] The proliferative index (BrDU) and the apoptotic index (TUNEL) were estimated by the percentage of cells scored under a microscope at 200-fold magnification.

[3] = tested on: advanced, frequently mutant p53-containing colorectal cancer tumors; details: patients with advanced; cited from earlier work
CRC cell = CRC cell plating efficiency; type: cell-based, human; details: 25–200 μM (pyrrolidinedithiocarbamate) and 0.1–10 mM (vitamin E), preliminary studies
endogenous H2O2 = assay: Intracellular H2O2 levels by flow cytometry with dihydrorhodamine; type: cell-based, human; details: up to 24 hours
Procedure: FIG. 1C is a bar graph of the hours after test compound treatment versus intracellular H2O2 levels. FIG. 1C illustrates the negative association between intracellular redox status and cell cycle perturbations. Changes in the intracellular redox status were determined by the measurement of endogenous H2O2 levels. Background fluorescence was subtracted from each reading. Values are expressed as corrected DHR mean per 10^4 cells±s.e.m. The percentage of G1 (circle) or apoptotic (TUNEL-positive: square) cells by flow cytometric analysis.
HCT 15 cells were incubated with pyrrolidinedithiocarbamate (70 μM), vitamin E (3 mM), N-acetylcysteine (50 μM) or vitamin C (200 μM) for 24 hours. Endogenous H2O2 levels and cell cycle changes were measured as described in FIG. 1C. […] Values from cells transfected with the empty plasmid were subtracted from those obtained from the catalase-containing cells and were expressed as mean±s.e.m. from duplicate dishes.
Intracellular H2O2 levels were analyzed by flow cytometry using […] (DHR) as a specific fluorescent dye probe [G. Rothe, A. Emmendorffer, A. Oser, J. Roesler, G. Valet, J Immun. […] Cellular rhodamine 123 fluorescence intensity of 1×10^4 cells was measured for each sample using a Becton-Dickenson FACS Vantage flow cytometer with the excitation source at 488 nm and emission wave length of 580 nm. […]

HCT 15 CRC cells = assay: Flow cytometric cell cycle analysis (propidium iodide); type: cell-based, human; details: HCT 15, pyrrolidinedithiocarbamate 70 μM or vitamin E 3 mM, 24 hours
Procedure: (§1) FIG. 1B is a series of flow cytometric analyses that indicate that antioxidants induce G1 cell cycle arrest and apoptosis in CRC cells. […] Twenty-four hours following antioxidant exposure, cells were harvested and flow cytometric analysis performed.
(§2) DNA Content of nuclei was determined as described [I. G. Nicoletti et al., J Immunol. Methods. 139, 271 (1991)] by lysing plasma membranes, staining nuclear DNA with propidium iodide ([…]), and quantitating the relative DNA content of nuclei using the Becton Dickinson FACSORT fluorescence-activated cell sorter. The proportion of nuclei in each phase of the cell cycle was determined using MODFIT-DNA analysis software. Detection of apoptotic cells either by fluorescence microscopy or by flow cytometry was performed using the ApopTag Plus In Situ Apoptosis Detection Kit (Oncor, Gaithersburg, Md.) as described in the manufacturer's protocol. Briefly, gigoxygenin-labeled nucleotides were added to free 3′OH groups of DNA produced by DNA fragmentation during apoptosis by terminal deoxynucleotidyl transferase (TdT). Digoxygenin was detected by a FTC-conjugated anti-digoxygenin antibody. Analysis was carried out using the fluorescence-activated cell sorter and FITC staining visualized using a fluorescence microscope (Zeiss). […]

HCT 116 CRC cells = assay: as above; type: cell-based, human; details: HCT 116, pyrrolidinedithiocarbamate 70 μM or vitamin E 3 mM, 24 hours
Procedure: as §1, §2

HCT 15 cells [4] = assay: Soft-agar colony formation (anchorage-independent growth)
Procedure: (§3) FIG. 1A is a graph of the concentration of PDTC versus soft-agar forming units×10^6 HCT 15 and HCT 116 cells (as a percent of control). […] Soft-agar colony formation was measured by seeding HCT 116 or HCT 15 cells in soft agar supplemented with either medium alone (control), or increasing concentrations of pyrrolidinedithiocarbamate (25–200 μM) or vitamin E (0.1–10 mM). Colonies were scored at the end of 10 days incubation at 37° C. Values are representative of three experiments carried out in quadruplicate.
(§4) HCT 116 and HCT 15 cells were seeded in soft agar as described above containing increasing concentrations of either 5-FU (5×10^−8 to 5×10^−5 M) or doxorubicin (1×10^−9 to 1×10^−6 M), in the presence or absence of pyrrolidinedithiocarbamate (70 μM) or vitamin E (3 mM). Colonies were scored after 10 days and IC50 values were calculated as the concentration of 5-FU or doxorubicin required to reduce basal colony formation by 50% (±s.e.m.). Values are representative of three experiments carried out in quadruplicate.

HCT 116 cells = assay: as above
Procedure: as §3, §4

rats = details: intravenously; cited from earlier work
PP2A = assay: Dephosphorylation of radiolabeled C/EBPβ in DKO-1 lysates; type: biochemical, human; details: DKO-1 cell lysates (cells treated with 17 μM PDTC for three hours), ten minutes at 37 degrees C
Procedure: FIG. 13 is a graph of time in hours versus percent radioactivity remaining on the protein substrate. […] The activity of PDTC is compared to I2 (a selective PP1 inhibitor), okadaic acid (an inhibitor of both PP2A and PP1), I2 and PDTC, and okadaic acid and PDTC. DKO-1 cells were grown in the presence of PDTC (test) or not (control). The cells were lysed, and then radioactive phosphorylated C/EBPβ was added. The test compounds were then added, and incubated with the lysate. The protein was collected and the amount of radioactive phosphate remaining in the protein measured.
Cell lysates were prepared and treated with the following reagents in the presence of phosphorylated C/EBPβ in which the phosphate is radiolabeled, for ten minutes at 37 degrees C: I2 (a selective PP1 inhibitor), okadaic acid (a selective inhibitor of PP2A and PP1), PDTC, I2 and PDTC, and okadaic acid and PDTC. […] This effect is reversible following removal of the antioxidant.

[5] = HCT 116 xenografts, weekly i.p. injections
[6] = HCT 15 cells induced to overexpress C/EBPβ
[7] = HCT 15 cells, absence of C/EBPβ overexpression

## O=c1[nH]cc(F)c(=O)[nH]1 [5-FU, 5-fluorouracil]
[1]; [5]
  tumor volume compared to saline-treated controls: significantly reduced tumor volume
HCT 15 cells [2]; [6]
  apoptotic index: 70%
HCT 15 cells [2]; [7]
  apoptotic index: 20%
HCT 15-derived tumors; HCT 15-derived tumors, after 3 weeks of single agent treatment, before cross-over
  tumor size: 1864+190 mm^3
[3]
  success rate: 15–20%

## Cc1c(C)c2c(c(C)c1O)CCC(C)(C(=O)O)O2 (stereo not shown) [6-hydroxy-2.5,7,8-tetramethylchroman-2-carboxylic acid]
[1]; HCT 116 xenograft model
  increase of apoptotic index (TUNEL) of residual tumors: approximately 5 fold
[1]; HCT 116 xenografts, weekly i.p. injections, combined with 5-FU (40 mg/kg)
  effect of adding the antioxidant to 5-FU on tumor volume: significantly enhanced the effect of 5-FU
[1]; [5]
  tumor volume compared to saline-treated controls: significantly reduced tumor volume
CRC cell
  CRC cell plating efficiency: no significant effect on CRC cell plating efficiency
Endogenous H2O2; HCT 15 cells, N-acetylcysteine 50 μM, vitamin C 200 μM
  endogenous H2O2 levels: significantly reduced endogenous H2O2 levels
Endogenous H2O2; HCT 116 cells
  endogenous H2O2 levels: significantly reduced endogenous H2O2 levels
HCT 15-derived tumors; HCT 15 xenograft model
  increase of apoptotic index (TUNEL) of residual tumors: approximately 5 fold
HCT 15 CRC cells
  accumulation of cells in the G1 peak: induced a significant accumulation of cells in the G1 peak
HCT 116 CRC cells
  accumulation of cells in the G1 peak: induced a significant accumulation of cells in the G1 peak
HCT 15 cells [4]
  effect on the IC50 of 5-FU and doxorubicin: decreased the IC50 for both 5-FU and doxorubicin
HCT 15 cells [4]; HCT 15 cells, increasing amounts (25–200 μM pyrrolidinedithiocarbamate, 0.1–10 mM vitamin E)
  anchorage-independent growth: dose-dependent reduction in anchorage-independent growth
HCT 15 cells [4]; read-out: approximate IC50 in soft agar, HCT 15 cells, soft agar, 10 days
  IC50: ~3000 µM
HCT 116 cells
  effect on the IC50 of 5-FU and doxorubicin: decreased the IC50 for both 5-FU and doxorubicin
HCT 116 cells; HCT 116 cells, increasing amounts (25–200 μM pyrrolidinedithiocarbamate, 0.1–10 mM vitamin E)
  anchorage-independent growth: dose-dependent reduction in anchorage-independent growth
HCT 116 cells; read-out: approximate IC50 in soft agar, HCT 116 cells, soft agar, 10 days
  IC50: ~3000 µM

## CC(=O)N[C@@H](CS)C(=O)O [N-acetylcysteine, acetamido-mercaptopropionic acid]
rats
  LD50: 1140 mg/kg

## COc1cccc2c1C(=O)c1c(O)c3c(c(O)c1C2=O)C[C@@](O)(C(=O)CO)C[C@@H]3O[C@H]1C[C@H](N)[C@H](O)[C@H](C)O1 [doxorubicin]
HCT 15 cells [2]; [6]
  apoptotic index: 80%
HCT 15 cells [2]; [7]
  apoptotic index: did not induce apoptosis

## C=C1[C@@H](O)[C@@H]2O[C@]3(CC[C@H](/C=C/[C@@H](C)[C@@H]4CC(C)=C[C@@]5(O[C@H](C[C@@](C)(O)C(=O)O)CC[C@H]5O)O4)O3)CC[C@H]2O[C@@H]1[C@@H](O)C[C@H](C)[C@H]1O[C@@]2(CCCCO2)CC[C@H]1C [okadaic acid, reference compound]
PP2A
  phosphatase activity toward phosphorylated C/EBPβ: inhibited all DKO-1 phosphatase activity

B1: I2: a selective PP1 inhibitor (protein, UniProt P41236 2-205, looked up)
Protein phosphatase inhibitor …: AASTASHRPIKGILKNKTSTTSSMVASAEQPRGNVDEELSKKSQKWDEMNILATYHPADKDYGLMKIDEPSTPYHSMMGDDEDACSDTEATEAMAPDILARKLAAAEGLEPKYRIQEQESSGEEDSDLSPEEREKKRQFEMKRKLHYNEGLNIKLARQLISKDLHDDDEDEEMLETADGESMNTEESNQGSTPSDQQQNKLRSS
PP2A
  phosphatase activity toward phosphorylated C/EBPβ: failed to protect C/EBPβ from dephosphorylation
